Columns and labels:
[1] = tested on: NCI-H596 (lung); test: CellTiter GLO viability assay, NCI-H596; format: cell-based; conditions: Homo sapiens, 144 h, read-out: IC50 (μM) incubation time 144 h
Method: (§1) The CellTiter-Glo Luminescent Cell Viability Assay (Promega) is a homogeneous method of determining the number of viable cells in culture. It is based on quantification of ATP, indicating the presence of metabolically active cells.
(§2) Cells were seeded on day 1 at cell numbers that assure assay linearity and optimal signal intensity. After incubation for 3 h in humidified chambers at 37° C./5% CO2 compounds/DMSO were added at different concentrations. […] Cells treated with the compound vehicle DMSO were used as positive controls and cells treated with 10 μM Staurosporine served as negative controls. […] Thereon, mixture and assay plates were equilibrated at room temperature for 20 min. Equal volumes of the reagent-medium-mixture was added to the volume of culture medium present in each well.
(§3) The plates were mixed at ˜200 rpm for 2 minutes on an orbital shaker. The microplates were then incubated at room temperature for 10 minutes for stabilization of the luminescent signal. Following incubation the luminescence is recorded on a Victor microplate reader (Perkin Elmer) using 200 ms integration time. The data were then analyzed with Excel using the XLFIT Plugin (dose response Fit 205) for IC50-determination. As quality control the Z′-factor was calculated from 16 positive and negative control values. Only assay results showing a Z′-factor≥0.5 were used for further analysis.

[2] = tested on: CA-46 (lymphoma); test: CellTiter GLO viability assay, CA-46; format: cell-based; conditions: Homo sapiens, CA46, 144 h, read-out: IC50 (μM) incubation time 144 h
Method: as §1
as §2, with “Cells were seeded on day 1 at cell numbers that assure assay linearity and optimal signal intensity.” left out
as §3

[3] = tested on: mitochondrial transcription (7S RNA) in HeLa cells; test: Quantitative real time-PCR assay of inhibition of mitochondrial transcription (cellular qPCR assay IMT); format: cell-based; conditions: Homo sapiens, 4 h compound incubation, qRT-PCR according to Example 5, activity class
Summary of the method: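 HeLa cells were exposed 4 h to compound dilution series or DMSO. Mitochondrial 7S RNA, with POLRMT for nuclear transcription, was measured by TaqMan qRT-PCR, normalised to TBP. Biological triplicates were analysed by ΔΔCt and expressed as Rq % (2^-ΔΔCt).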

[4] = tested on: human DLD-1 colon carcinoma xenograft; test: Therapeutic effect on human DLD-1 colon carcinoma xenograft in nude mice
Method: (§4) DLD-1 colon carcinoma cells (5×10^6 cells in 100 μL of PBS/Matrigel), isolated during exponential growth phase from in vitro cell culture, were transplanted s.c. into each female BALB/c nude mouse at day 0. Mice were kept under strictly controlled and standardized barrier conditions in IVC.
(§5) Sorafenib) (Nexavar®, which is an approved multi-kinase inhibitor/cytostatic from Bayer A G, was used as a positive control. Body weight and tumor volume (TV) were monitored two to three times per week.
(§6) Mice of groups 3, 4 and 5 were treated again at the end of the study period and blood samples were taken to generate plasma 1 h prior and 1 h post treatment. In addition, tumor and tissue samples were isolated, divided into two parts and snap frozen in liquid nitrogen. Mice of groups 1-5 were sacrificed at day 39. Gross autopsy was performed from all mice.

[5] = tested on: SW948 (colon); test: CellTiter GLO viability assay, SW948; format: cell-based; conditions: Homo sapiens, 144 h, read-out: IC50 (μM) incubation time 144 h
Method: as §1, §2, §3

[6] = tested on: human A2780 ovary carcinoma xenograft; test: Therapeutic effect on human A2780 ovary carcinoma xenograft in nude mice; format: in vivo, nude mice (female NMRI: nu/nu)
Method: In addition to the number of mice needed to build the groups necessary for the experiment, 8 additional mice were transplanted to have a sufficient number of satellite animals to improve stratification. Mice were stratified at day 7, when the mean tumor volume (TV) was 0.213±0.061 cm^3, (median TV=0.206 cm^3) into groups A-D with 8 mice each. 8 mice were excluded because of their tumor size.
Immediately before use, compound 14 was dissolved to obtain an injection solution to be sufficient for one week of treatment. The treatments were indicated as described in Table 6. […] Mean tumor […]±S.D. (RTV) was calculated. […] Mice of groups A, C and D were sacrificed at day 34 (QDx28 for times 28. Gross autopsy was performed from all mice.

[7] = tested on: SW403 (colon); test: CellTiter GLO viability assay, SW403; format: cell-based; conditions: Homo sapiens, SW-403, 144 h, read-out: IC50 (μM) incubation time 144 h
Method: as §1
as §2, with “Cells were seeded on day 1 at cell numbers that assure assay linearity and optimal signal intensity.” left out
as §3

[8] = tested on: NCI-H1299 (lung); test: CellTiter GLO viability assay, NCI-H1299; format: cell-based; conditions: Homo sapiens, 144 h, read-out: IC50 (μM) incubation time 144 h
Method: as §1, §2, §3

[9] = tested on: SW48 (colon); test: CellTiter GLO viability assay, SW48; format: cell-based; conditions: Homo sapiens, 144 h, read-out: IC50 (μM) incubation time 144 h
Method: as §1, §2, §3

[10] = tested on: human DLD-1 colon carcinoma xenograft; conditions: mouse, in vivo
Method: as §4, §5, §6

[11] = tested on: HRT-18 (colon); test: CellTiter GLO viability assay, HRT-18; format: cell-based; conditions: Homo sapiens, 144 h, read-out: IC50 (μM) incubation time 144 h
Method: as §1, §2, §3

[12] = tested on: HEC-59 (endometrial); test: CellTiter GLO viability assay, HEC-59; format: cell-based; conditions: 144 h, read-out: IC50 (μM) incubation time 144 h
Method: as §1, §2, §3

With `C[C@@H](Oc1ccc2c(-c3ccc(F)cc3Cl)cc(=O)oc2c1)C(=O)N1CCC[C@H](C(=O)O)C1` [Compound 14, (3S)-1-[(2R)-2-[4-(2-chloro-4-fluoro-phenyl)-2-oxo-chromen-7-yl]oxypropanoyl]piperidine-3-carboxylic acid] the IC50 [1] was 1 to 10 µM, the IC50 [2] was ≤ 0.1 µM and the IC50 [3] was < 0.01 µM. For the same compound, the Tolerability ([4]; DLD-1 xenograft, p.o. QD × 28 days) was “well tolerated”, the “Therapeutic effect: tumor growth inhibition” value ([4]; all doses) was “dose-dependent tumor growth inhibition” and the “Therapeutic effect: tumor growth inhibition” value ([4]; lowest dose (50 mg/kg)) was “minor effect”. The IC50 [5] was 0.1 to 1 µM, the Mean tumor weight ([6]; 30 mg/kg p.o. QD × 21) was 0.629 g and the “RTV (relative tumor volume at day 27 compared to D 7)” value ([6]; 30 mg/kg p.o. QD × 21) was 6.8. The “Tumor weight, % of control” value ([6]; 30 mg/kg p.o. QD × 21) was “(75.5) %”, the “Tumor growth inhibition (D 27): Mean TV” value ([6]; 30 mg/kg p.o. QD × 21, day 27) was 1.300 cm^3 and the “optimum T/C value” ([6]; 50 mg/kg) was 88.3%. For the same compound, the “optimum T/C value” ([6]; 100 mg/kg) was 59.2%, the Mean tumor weight ([6]; 100 mg/kg p.o. QD × 28) was 0.491 g and the “RTV (relative tumor volume at day 27 compared to D 7)” value ([6]; 100 mg/kg p.o. QD × 28) was 5.1. For the same compound, the “Tumor weight, % of control” value ([6]; 100 mg/kg p.o. QD × 28) was “(60,0) %”, the “Tumor growth inhibition (D 27): Mean TV” value ([6]; 100 mg/kg p.o. QD × 28, day 27) was 0.715 cm^3 and the “optimum T/C value” ([6]; 200 mg/kg) was 24.9%. The Mean tumor weight ([6]; 200 mg/kg p.o. QD × 28) was 0.141 g, the “RTV (relative tumor volume at day 27 compared to D 7)” value ([6]; 200 mg/kg p.o. QD × 28) was 1.1 and the “Tumor weight, % of control” value ([6]; 200 mg/kg p.o. QD × 28) was “(16.99) %”. The “Tumor growth inhibition (D 27): Mean TV” value ([6]; 200 mg/kg p.o. QD × 28, day 27) was 0.232 cm^3, the Tolerability ([6]; A2780 xenograft, p.o. QD) was “well tolerated” and the “Therapeutic effect: tumor growth inhibition” value ([6]; all doses) was “dose-dependent tumor growth inhibition”. For the same compound, the “Therapeutic effect: tumor growth inhibition” value ([6]; higher doses (100 and 200 mg/kg)) was “significantly more active regarding tumor growth inhibition”, the “Therapeutic effect: tumor growth inhibition” value ([6]; lowest dose (50 mg/kg)) was “no significant effect” and the “Autopsy at the end” value ([6]; mouse, in vivo) was “no abnormal observations”. The signs of toxicity ([6]; mouse, in vivo, po) was “no signs of toxicity were observed”, the IC50 [7] was ≤ 0.1 µM and the IC50 [8] was 0.1 to 1 µM. For the same compound, the IC50 [9] was 0.1 to 1 µM, the “Autopsy at the end” value [10] was “no abnormal observations” and the body weight loss [10] was “moderate body weight loss”. The signs of toxicity [10] was “no signs of toxicity were observed”, the IC50 [11] was ≤ 0.1 µM and the IC50 [12] was > 10 µM.

Reference: patent publication US11111238B2, “Coumarin derivatives, processes for their preparation and uses thereof for the treatment of cancer” (Lead Discovery Center GmbH, priority 2017, dated 2021)
